Patent US20080234304A1, “N3-Pyridyl-Thiamine And Its Use In Cancer Treatments” (AVEO PHARMACEUTICALS, INC., priority 2004, published 2008)
“Also recorded” adds a separate entry of the source.

Experiments:
[1] = target: T1, alpha-ketoglutarate dehydrogenase (kGDH) (Homo sapiens, UniProt Q02218); assay: kGDH activity in extracts from cells incubated with N3PT; type: cell-based; conditions: extracts from cells incubated with increasing concentrations of N3PT; read-out: IC50 kGDH (selectivity comparison, FIG. 9)
T1 construct: endogenous in cells
T1 sequence (Q02218 41-1023): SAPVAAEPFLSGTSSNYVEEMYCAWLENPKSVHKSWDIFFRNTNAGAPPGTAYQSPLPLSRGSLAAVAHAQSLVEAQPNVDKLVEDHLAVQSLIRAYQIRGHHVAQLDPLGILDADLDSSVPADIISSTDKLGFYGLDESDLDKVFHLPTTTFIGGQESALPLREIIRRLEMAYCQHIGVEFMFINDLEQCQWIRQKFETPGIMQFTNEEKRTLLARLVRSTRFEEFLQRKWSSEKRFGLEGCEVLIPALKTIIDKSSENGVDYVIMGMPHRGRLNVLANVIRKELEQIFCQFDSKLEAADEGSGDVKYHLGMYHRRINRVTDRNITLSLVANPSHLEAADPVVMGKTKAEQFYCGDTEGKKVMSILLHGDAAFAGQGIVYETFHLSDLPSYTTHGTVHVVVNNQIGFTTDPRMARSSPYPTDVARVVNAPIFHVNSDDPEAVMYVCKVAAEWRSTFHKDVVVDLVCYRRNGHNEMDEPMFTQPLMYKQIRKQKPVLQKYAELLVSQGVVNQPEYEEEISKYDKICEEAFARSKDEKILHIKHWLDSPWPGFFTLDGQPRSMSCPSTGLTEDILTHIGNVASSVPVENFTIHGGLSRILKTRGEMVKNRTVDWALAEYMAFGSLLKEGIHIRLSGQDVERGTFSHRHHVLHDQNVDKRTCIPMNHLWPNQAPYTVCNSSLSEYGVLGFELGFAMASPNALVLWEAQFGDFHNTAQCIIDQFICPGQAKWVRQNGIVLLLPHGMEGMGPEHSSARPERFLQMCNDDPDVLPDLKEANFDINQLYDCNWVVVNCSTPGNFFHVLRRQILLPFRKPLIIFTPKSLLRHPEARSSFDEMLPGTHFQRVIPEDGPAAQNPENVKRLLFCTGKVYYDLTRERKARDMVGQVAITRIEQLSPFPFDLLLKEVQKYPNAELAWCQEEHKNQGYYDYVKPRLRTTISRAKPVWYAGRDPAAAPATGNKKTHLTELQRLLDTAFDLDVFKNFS
T1 sequence (P36957 68-453 partner): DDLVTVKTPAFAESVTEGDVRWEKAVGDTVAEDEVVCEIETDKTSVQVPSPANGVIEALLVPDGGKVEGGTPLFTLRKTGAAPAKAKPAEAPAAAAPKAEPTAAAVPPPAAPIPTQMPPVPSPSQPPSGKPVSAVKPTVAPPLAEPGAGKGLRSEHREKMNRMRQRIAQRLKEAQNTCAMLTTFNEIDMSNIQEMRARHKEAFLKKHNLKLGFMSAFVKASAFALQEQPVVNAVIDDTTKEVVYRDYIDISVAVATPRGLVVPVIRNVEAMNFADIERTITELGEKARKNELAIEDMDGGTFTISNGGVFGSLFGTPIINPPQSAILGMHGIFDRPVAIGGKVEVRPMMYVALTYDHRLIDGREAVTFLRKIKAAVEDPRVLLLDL
T1 sequence (P09622 36-509 partner): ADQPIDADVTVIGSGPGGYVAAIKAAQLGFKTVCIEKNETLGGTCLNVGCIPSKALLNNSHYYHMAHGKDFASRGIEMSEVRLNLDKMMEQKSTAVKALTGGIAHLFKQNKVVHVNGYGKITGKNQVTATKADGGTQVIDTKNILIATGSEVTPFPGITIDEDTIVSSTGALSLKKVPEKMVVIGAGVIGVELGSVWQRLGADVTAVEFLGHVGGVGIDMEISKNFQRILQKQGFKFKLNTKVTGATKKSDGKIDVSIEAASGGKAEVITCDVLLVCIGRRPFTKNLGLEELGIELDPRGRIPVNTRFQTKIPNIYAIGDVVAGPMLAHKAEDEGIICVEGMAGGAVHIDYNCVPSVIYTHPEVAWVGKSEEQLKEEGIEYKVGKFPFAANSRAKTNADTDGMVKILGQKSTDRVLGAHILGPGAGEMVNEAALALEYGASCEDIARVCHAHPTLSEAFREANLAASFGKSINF
Experimental: TK, kGDH and PDH enzymes all utilize thiamine pyrophosphate (TPP) as a co-factor for their catalysis. Conventional cell culture media (e.g., DMEM, RPMI) have high levels of thiamine (12 μM and 3 μM, respectively). High thiamine levels will mask the inhibitory effect of N3PT. Thus, to measure the IC50 of N3PT, a thiamine depleted DMEM, containing all the ingredients of normal DMEM except for thiamine (HyClone, custom order), was used. Thiamine-depleted media (TDM) is made up with thiamine-depleted DMEM, 10% FBS, which contains low amounts of thiamine (estimated to be ˜3-5 nM) and 1% Penicillin-streptomycin.
Log-phase growing cells were trypsinized and resuspended in TDM. Twenty-four hours after seeding, 5 μl of 20× N3PT compound stock solution was added to the cells in 95 μl of TDM. After increasing times of N3PT treatment, cells were either subjected to enzymatic reactions directly or were frozen at −20° C. for future assays. […] TK activities could be measured from ≧5000 cells in most cell lines tested. […]
Enzymatic inhibition was expressed as percent of control cells that were not treated with compounds. […]

[2] = target: T2, glucose-6-phosphate dehydrogenase (G6PDH) (Mus musculus, UniProt Q00612); assay: G6PDH activity in blood and tissues of N3PT-treated mice; type: in vivo
T2 construct: (G6PDH) in blood, spleen and brain after a single dose of N3PT in mice; from tissue; host or cells: blood, spleen and brain of Balb C nude mice
T2 sequence (Q00612 whole entry): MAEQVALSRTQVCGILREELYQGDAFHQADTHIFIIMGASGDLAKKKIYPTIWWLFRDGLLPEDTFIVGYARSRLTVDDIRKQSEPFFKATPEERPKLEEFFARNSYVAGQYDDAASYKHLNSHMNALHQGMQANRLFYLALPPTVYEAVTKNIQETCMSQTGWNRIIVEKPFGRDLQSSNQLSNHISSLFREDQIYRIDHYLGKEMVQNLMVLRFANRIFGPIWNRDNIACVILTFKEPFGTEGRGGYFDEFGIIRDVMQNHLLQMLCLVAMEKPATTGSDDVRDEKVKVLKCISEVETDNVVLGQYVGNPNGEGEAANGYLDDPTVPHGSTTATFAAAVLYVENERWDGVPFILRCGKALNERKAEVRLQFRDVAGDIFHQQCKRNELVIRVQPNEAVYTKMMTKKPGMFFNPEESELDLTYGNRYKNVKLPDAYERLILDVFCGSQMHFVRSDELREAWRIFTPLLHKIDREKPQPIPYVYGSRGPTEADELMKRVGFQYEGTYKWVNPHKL

LAMA84 = assay: inhibition of proliferation of LAMA84 cells; type: cell-based; conditions: LAMA84 chronic myeloid leukemia cell line
Experimental: (§1) The ability of N3PT to inhibit proliferation of these cell lines was then tested. LAMA84 was the most sensitive to N3PT, displaying an IC50 of 0.3 μM. The other cell lines, HCT116 and K562, were less sensitive, displaying an IC50 of approximately 2 μM in both cases. LAMA84 also had the highest TK activity (per cell) among these three cancer lines.

HCT116 = assay: inhibition of proliferation of HCT116 cells; type: cell-based, human; conditions: HCT116 colon carcinoma
Experimental: as §1

K562 = assay: inhibition of proliferation of K562 cells; type: cell-based; conditions: K562 CML line
Experimental: as §1

IC50 [1]: 0.086 µM
G6PDH activity after repeated treatment ([2]; 200 mg/kg/day, % of vehicle average): no effect on G6PDH activity
IC50 (HCT116): ~2 µM
IC50 (K562): ~2 µM
SMILES: Cc1ccc(C[n+]2csc(CCO)c2C)c(N)n1 [N3PT, 3-[(2-amino-6-methyl-3-pyridinyl)methyl]-5-(2-hydroxyethyl)-4-methyl thiazolium]
G6PDH activity after single dose ([2]; single dose 100 mg/kg i.p., blood, spleen, brain, 0-120 hr, 100 mg/kg): no effect on G6PDH in vivo; also recorded: little or no effect
IC50 (LAMA84): 0.3 µM
